Data on one compound can be found in US11564913B2, “Compositions and methods for treating cancer” (Children's Hospital Medical Center, priority 2019, dated 2023).

The subject of assay [1] is pPAK4(S474)/pPAK5(S602)/PAK6(S560) in MDA-MB-231 cells. Nature of the assay: pPAK immunoblot. Type of assay: cell-based, human. The settings on record: 0.3 and 1 μM, up to 3 h incubation. For orientation: A western blot detects proteins with antibodies after separation by electrophoresis.
The target of a further assay is T1, Rac1 (Homo sapiens, UniProt P63000).
T1 construct: His6 (N); made in house
Put plainly: Microscale thermophoresis (MST) binding. The settings on record: no saturation at highest concentration tested, read-out: Kd, best estimate. The method, then: FIG. 14: IODVA1 targets Vav3 in vitro and in vivo. (A) Ba/F3 cells expressing empty vector Mieg3 or p190-BCR-ABL1 were treated with vehicle control or IODVA1 (IO1, 3 μM) for 30 min and incubated with GST-Rac and glutathione beads. Beads were washed and the protein complexes were separated on SDS-PAGE and immunoblotted for pVav3. Input Vav3 was used as control. (B) Binding affinity (Kd) between IODVA1 and Vav3 (green), LARG (brown), and RacGDP (blue). […] Error bars=SD; N=3. (C) Quantification of the average number of colonies made by bone marrow wild-type (black) and Vav3^−/− (lilac) p190-BCR-ABL1 leukemic cells treated with vehicle control or IODVA1 (IO1, 1 and 3 μM) (* p≤0.05; ** p≤0.01; *** p≤0.001; ns, not significant). (D) Representative histogram data of the cell cycle analysis of wild-type (black and grey bars) and Vav3^−/− (dark and light lilac) bone marrow cells expressing p190-BCR-ABL and treated with vehicle control or IODVA1 (IO1, 3 μM) for 20 h. (E) Quantification by densitometry of the pVav3 band from FIG. 14A. […]
To test this hypothesis, we measured its binding affinity (Kd) to recombinant Vav3 and Rac1 using microscale thermophoresis (MST); the catalytic domain (DH/PH) of the RhoGEF LARG served as negative control. […] Second, like Vav3, LARG contains a DH/PH domain responsible for the exchange activity such that any non-specific binding to this domain should be detected. […]

As for `OC1(c2ccccn2)N=C(Nc2nc3ccccc3[nH]2)N=C1c1ccccn1` (centres unmarked) [IODVA1, (Z)-2-((1H-benzo[d]imidazol-2-yl)imino)-4,5-di(pyridin-2-yl)-2,5-dihydro-1H-imidazol-5-ol], the “levels of pPAK4/5/6” value in assay [1] is reported as “did not change”. Moreover, the Kd at Rac1 is roughly 35.5 µM.

Broadly, the Kd is the free concentration of one partner at which half of the binding sites on the other are occupied at equilibrium, for simple one-to-one binding.
